Experimental data reported in PubChem BioAssay AID977605 (Broad Institute, 2014).
The source made the active and inactive calls.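 The calls were made as follows: active = fitted curve reaches 40% activation below the top valid tested dose, in every test run; inconclusive = test runs disagree on the call; inactive = the rest, including effects opposite to the expected direction.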

Test: E-selectin inducers in HUVECs, dose response, imaging, HUVEC, cherry-picked samples (AID 977605);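 also: signal is the share of imaged cells scored positive for E-selectin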
Details: HUVEC E-selectin immunostaining
[1] = at 19.5 µM (top of the series), percent of TNF-alpha response over vehicle
[2] = at 21 µM (top of the series), percent of TNF-alpha response over vehicle

Structure (SMILES)	activation [1]	also measured
C[C@@H]1CN([C@H](C)CO)C(=O)Cc2cc(NC(=O)CCN3CCOCC3)ccc2O[C@H]1CN(C)S(C)(=O)=O	0.606% (inactive)	
Cc1ccc(NCC(=O)N2CCN(S(=O)(=O)c3ccccc3)CC2)cc1F	0.075% (inactive)	
C[C@@H]1CN([C@H](C)CO)C(=O)c2cc(NC(=O)CCN3CCOCC3)ccc2O[C@H]1CN(C)C(=O)Nc1ccc(C(F)(F)F)cc1	-0.038% (inactive)	
O=C(CN(Cc1ccc(F)cc1)C(=O)CNS(=O)(=O)c1ccc(F)cc1)NCc1ccco1	-0.246% (inactive)	
C[C@@H]1CN([C@@H](C)CO)S(=O)(=O)c2ccc(C#Cc3ccccc3)cc2O[C@@H]1CN(C)CC1CC1	0.541% (inactive)	
C[C@@H]1CN([C@H](C)CO)C(=O)Cc2cc(NC(=O)Cn3cnnn3)ccc2O[C@H]1CN(C)C(=O)Nc1ccc(C(F)(F)F)cc1	0.232% (inactive)	
O=S(=O)(NCc1csc(-c2cccs2)n1)c1cccc(C(F)(F)F)c1	-0.123% (inactive)	
CC(=O)Nc1ccc(NC(=O)COc2ccc(Cl)cc2Cl)cc1	-0.194% (inactive)	
C[C@@H]1CN([C@@H](C)CO)C(=O)c2cc(NS(=O)(=O)c3cccs3)ccc2O[C@@H]1CN(C)S(C)(=O)=O	-0.005% (inactive)	
COc1ccc(NS(=O)(=O)c2ccc3c(c2)CCCN3C(C)=O)cc1	-0.06% (inactive)	
CCOC(=O)[C@]12CCCC=C1N(CCC1=CCCCC1)C(=O)[C@H](CC(=O)NCCC(C)C)C2	7.1% (inactive)	
CCC(=O)N(C)C[C@H]1Oc2ncc(Br)cc2C(=O)N([C@@H](C)CO)C[C@H]1C	-0.195% (inactive)	
Cc1ccc(OCc2nc(-c3cccnc3)no2)cc1C	-0.108% (inactive)	
C[C@H](CO)N1C[C@H](C)[C@H](CN(C)C(=O)NC2CCCCC2)Oc2ccc(NS(=O)(=O)c3ccccc3)cc2C1=O	-0.156% (inactive)	
CCOC(=O)N1CCN=C1SCc1ccc(Cl)c(Cl)c1	5.27% (inactive)	
O=C(O)Cn1cc(C(=O)C(F)(F)F)c2ccccc21	0.43% (inactive)	
CNC(=O)Oc1ccc2c(c1)[C@]1(C)CCN(C)C1N2C (stereo not given in full)	-0.106% (inactive)	
Cc1c(C(=O)N2CCN(S(=O)(=O)c3cc(F)ccc3F)CC2)oc2ccccc12	-0.021% (inactive)	
CCCCc1c(C)nc2ccc(C)cc2c1SCCC(=O)O	-0.168% (inactive)	
CC(C)NC(=O)N(C)C[C@H]1Oc2ccc(NC(=O)CCC(F)(F)F)cc2CC(=O)N([C@@H](C)CO)C[C@@H]1C		activation [2]: -0.117% (inactive)
CCCCSCCCNC(=O)C1CCC(CNS(=O)(=O)c2ccc(NC(C)=O)cc2)CC1 (stereo not given)	0.405% (inactive)	
COc1ccc(CCNS(=O)(=O)c2ccc3c(c2)NC(=O)CS3)cc1OC	-0.024% (inactive)	
Nc1nnc(SCc2nnc(-c3ccccc3)o2)s1	0.69% (inactive)	
Cc1c(C(=O)NCc2ccco2)oc2ccccc12	-0.246% (inactive)	
Cc1ccc(O)c([C@H](CCN(C(C)C)C(C)C)c2ccccc2)c1	-0.269% (inactive)	

Structure (SMILES)	activation [1]	also measured
COc1ccc(S(=O)(=O)N(C)C[C@@H]2Oc3ccc(NC(=O)CCCN(C)C)cc3C(=O)N([C@@H](C)CO)C[C@@H]2C)cc1		activation [2]: -0.143% (inactive)
CCOC(=O)[C@]12CCCC=C1N(Cc1ccccc1)C(=O)[C@H](CC(=O)NCc1cccc3ccccc13)C2	0.13% (inactive)	
CCCCOCC1CN(CCCC)S(=O)(=O)c2c(Oc3ccc(C(C)C)cc3)cccc2O1 (stereo not given)	-0.279% (inactive)	
CC1=NC(C)(C)Cc2c(C)cccc21	-0.148% (inactive)	
COc1ccc(S(=O)(=O)Nc2ccc3c(c2)C(=O)N([C@H](C)CO)C[C@@H](C)[C@H](CN(C)Cc2ccc(Cl)c(Cl)c2)O3)cc1	-0.125% (inactive)	
CC(C)NC(=O)N(C)C[C@@H]1Oc2c(NC(=O)c3ccc(-c4nccs4)cc3)cccc2C(=O)N([C@@H](C)CO)C[C@@H]1C		activation [2]: -0.199% (inactive)
COc1ccc(NC(=O)N(C)C[C@H]2Oc3ccc(NC(=O)c4ccncc4)cc3CC(=O)N([C@H](C)CO)C[C@@H]2C)cc1	-0.048% (inactive)	
Cc1noc(C)c1NC(=O)Nc1ccc2c(c1)CC(=O)N([C@@H](C)CO)C[C@@H](C)[C@@H](CN(C)Cc1ccc(Cl)c(Cl)c1)O2		activation [2]: 3.17% (inactive)
CC12CCC(=O)N1C(C(=O)Nc1cc(Cl)ccc1N1CCOCC1)CS2 (stereo not given)	-0.124% (inactive)	
CC(C)NC(=O)Nc1ccc2c(c1)C(=O)N([C@@H](C)CO)C[C@@H](C)[C@H](CN(C)Cc1ccc(C(=O)O)cc1)O2	-0.098% (inactive)	
C[C@H](CO)N1C[C@H](C)[C@@H](CN(C)S(=O)(=O)c2cn(C)cn2)Oc2ccc(NS(=O)(=O)c3ccc(Cl)cc3)cc2C1=O	-0.286% (inactive)	
CC(C)NC(=O)Nc1ccc2c(c1)CC(=O)N([C@H](C)CO)C[C@@H](C)[C@H](CN(C)Cc1ccc(Oc3ccccc3)cc1)O2	-0.138% (inactive)	
C[C@@H]1CN([C@H](C)CO)C(=O)c2cccc(NC(=O)C3CC3)c2O[C@@H]1CN(C)CC1CC1	-0.106% (inactive)	
COc1ccc(-c2nc3cc(C)c(Br)c(C)n3c2CC(C)(C)C)cc1OC	0.052% (inactive)	
C[C@H]1CN([C@@H](C)CO)C(=O)c2cc(NS(=O)(=O)c3cccs3)ccc2O[C@H]1CN(C)S(C)(=O)=O		activation [2]: 0.402% (inactive)
COc1ccc(S(=O)(=O)Nc2cccc3c2O[C@H](CN(C)C(=O)Nc2c(C)noc2C)[C@@H](C)CN([C@@H](C)CO)C3=O)cc1		activation [2]: -0.092% (inactive)
COc1cc(CC2C(=O)Nc3ccccc32)cc(C)c1O (stereo not given)	36.1% (inactive)	
COc1ccc(S(=O)(=O)N2CCOCC2)cc1C(=O)NCc1ccccc1CN1CCCC1	0.269% (inactive)	
Cc1ccc(N2C(=O)[C@@H]3C(c4cccnc4)=NO[C@@H]3C2=O)c(C)c1	0.363% (inactive)	
COc1ccc(NC(=O)N(C)C[C@@H]2Oc3ccc(NC(=O)Cc4ccccc4)cc3CC(=O)N([C@H](C)CO)C[C@H]2C)cc1	-0.201% (inactive)	
Cc1cccc(NS(=O)(=O)c2ccc(S(=O)(=O)N3CCCC3)cc2)c1	1.83% (inactive)	
O=S(=O)(Nc1cccc2[nH]ncc12)c1cccs1	-0.069% (inactive)	
C[C@H](CO)N1C[C@H](C)[C@H](CN(C)C(=O)Nc2ccc3c(c2)OCO3)Oc2c(NS(=O)(=O)c3ccc(Cl)cc3)cccc2C1=O		activation [2]: -0.135% (inactive)
CN(C1CCCCC1)S(=O)(=O)c1cn(C)c(=O)n(C)c1=O	-0.175% (inactive)	
Cc1ccc(S(=O)(=O)N2CCOCC2)cc1C(=O)NC1CCCC1	-0.154% (inactive)	

Structure (SMILES)	activation [1]	also measured
C[C@@H]1CN([C@H](C)CO)C(=O)c2cc(NS(C)(=O)=O)ccc2O[C@H]1CN(C)C(=O)Nc1ccc2c(c1)OCO2		activation [2]: 0.437% (inactive)
CC1CC(=O)Nc2ccccc2N1S(=O)(=O)c1cccs1 (stereo not given)	-0.177% (inactive)	
CC(C)CCNC(=O)[C@H](Cc1ccccc1)N1Cc2ccccc2C1=O	0.131% (inactive)	
C/C(=N\NC(=O)c1cc(C(C)C)[nH]n1)c1ccco1	0.133% (inactive)	
C[C@H](CO)N1C[C@H](C)[C@@H](CN(C)C(=O)NC2CCCCC2)Oc2c(NC(=O)Nc3ccc(F)cc3)cccc2C1=O	0.219% (inactive)	
CC(C)NC(=O)N(C)C[C@@H]1Oc2ccc(NC(=O)CCN3CCOCC3)cc2C(=O)N([C@H](C)CO)C[C@H]1C	-0.003% (inactive)	
C[C@H]1CN([C@@H](C)CO)C(=O)c2cccc(NC(=O)c3cnccn3)c2O[C@H]1CN(C)Cc1ccc2c(c1)OCO2	-0.117% (inactive)	
COc1ccc(S(=O)(=O)N(C)C[C@H]2Oc3ccc(NC(=O)c4ccncc4)cc3C(=O)N([C@H](C)CO)C[C@H]2C)cc1		activation [2]: 4.32% (inactive)
N#Cc1cccnc1N1CCC(C(N)=O)CC1	0.067% (inactive)	
CC(C)NC(=O)Nc1cccc2c1O[C@@H](CN(C)Cc1ccc(C(F)(F)F)cc1)[C@H](C)CN([C@H](C)CO)C2=O	-0.054% (inactive)	
COc1ccc(NC(=O)N(C)C[C@@H]2Oc3ccc(NC(=O)c4ccncc4)cc3CC(=O)N([C@H](C)CO)C[C@@H]2C)cc1	-0.135% (inactive)	
COc1ccc(-c2nnc3n2CCCCC3)cc1	0.032% (inactive)	
C[C@@H]1CN([C@@H](C)CO)C(=O)c2cccc(NC(=O)CCCCCC(=O)Nc3ccccc3N)c2O[C@H]1CN(C)S(=O)(=O)c1cn(C)cn1	0.292% (inactive)	
CCCC#Cc1ccc2c(c1)O[C@@H](CN(C)CCC)[C@@H](C)CN([C@@H](C)CO)S2(=O)=O	-0.152% (inactive)	
C[C@H]1CN([C@@H](C)CO)C(=O)c2cc(NC(=O)Nc3ccc(F)cc3)ccc2O[C@H]1CN(C)S(=O)(=O)c1cccs1		activation [2]: 2.05% (inactive)
Cc1ccccc1CN1CCN(S(=O)(=O)c2ccc(Cl)s2)CC1	0.152% (inactive)	
CC(C)NC(=O)N(C)C[C@@H]1Oc2ccc(NC(=O)Cc3cn(C)c4ccccc34)cc2C(=O)N([C@H](C)CO)C[C@H]1C	0.047% (inactive)	
C[C@H](CO)N1C[C@H](C)[C@H](CN(C)Cc2ccc3c(c2)OCO3)Oc2ccc(NC(=O)Cc3cn(C)c4ccccc34)cc2C1=O	0.14% (inactive)	
CN1CCN(c2cn[nH]c(=O)c2Cl)CC1		activation (at 19.5 µM (top of the series)): -0.235% (inactive)
CC(C)NC(=O)Nc1ccc2c(c1)CC(=O)N([C@@H](C)CO)C[C@H](C)[C@@H](CN(C)Cc1ccc(C(=O)O)cc1)O2	0.001% (inactive)	
CC(C)NC(=O)Nc1cccc2c1O[C@@H](CN(C)Cc1ccc(Cl)c(Cl)c1)[C@@H](C)CN([C@H](C)CO)C2=O		activation [2]: 7.29% (inactive)
CC(=O)N(C)C[C@@H]1Oc2cc(C#Cc3ccccn3)ccc2S(=O)(=O)N([C@H](C)CO)C[C@@H]1C	-0.123% (inactive)	
Cc1noc(C)c1NC(=O)N(C)C[C@@H]1Oc2ccc(NS(=O)(=O)c3cccs3)cc2CC(=O)N([C@H](C)CO)C[C@@H]1C		activation [2]: 10.8% (inactive)
COc1ccc(NC(=O)Nc2ccc3c(c2)C(=O)N([C@@H](C)CO)C[C@H](C)[C@@H](CN(C)C)O3)cc1	1.42% (inactive)	
COc1ccc(NC(=O)N(C)C[C@H]2Oc3c(NS(=O)(=O)c4cn(C)cn4)cccc3C(=O)N([C@@H](C)CO)C[C@@H]2C)cc1	0.542% (inactive)	
